SMILES strings stand for the structures.

Assay [1] has as its target T1, D(4) dopamine receptor (Homo sapiens, UniProt P21917).
T1 sequence (P21917 whole entry): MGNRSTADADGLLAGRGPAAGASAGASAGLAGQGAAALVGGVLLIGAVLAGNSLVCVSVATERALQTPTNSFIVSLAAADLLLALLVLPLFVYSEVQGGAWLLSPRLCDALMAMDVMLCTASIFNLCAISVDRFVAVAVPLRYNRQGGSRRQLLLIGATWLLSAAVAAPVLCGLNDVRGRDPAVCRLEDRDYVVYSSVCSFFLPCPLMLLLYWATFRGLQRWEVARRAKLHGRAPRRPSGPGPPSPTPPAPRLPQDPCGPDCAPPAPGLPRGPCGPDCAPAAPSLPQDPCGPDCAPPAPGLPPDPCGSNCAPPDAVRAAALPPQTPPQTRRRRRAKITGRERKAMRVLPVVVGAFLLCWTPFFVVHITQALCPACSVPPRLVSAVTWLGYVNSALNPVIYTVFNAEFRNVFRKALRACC
Put plainly: Binding Affinity was tested on the high affinity site of Dopamine receptor D4.4.

Assay [2] concerns the target T2, D(1A) dopamine receptor (Bos taurus, UniProt Q95136). Put plainly: Binding Affinity was tested on High Affinity Site of Bovine dopamine receptor D1. Tested for ability to displace the radioligand [3H]-SCH- 23390.
For assay [3], the target named is T3, D(2) dopamine receptor (Homo sapiens, UniProt P14416).
Assay [4] has as its target T3, D(2) dopamine receptor. The source holds these as a separate data set.
In assay [5] the target is T4, D(3) dopamine receptor (Homo sapiens, UniProt P35462).
The target of assay [6] is T5, D(2) dopamine receptor (Bos taurus, UniProt P20288). Put plainly: Binding Affinity was tested on high Affinity Site of Bovine Dopamine D2 Receptor. Tested for ability to displace the radioligand [3H]-Spiperone.
Assay [7] concerns the target T3, D(2) dopamine receptor. Put plainly: Binding Affinity of Compound of Dopamine receptor D2S.
Assay [8] concerns the target T3, D(2) dopamine receptor. Briefly: Binding Affinity was determined in the presence of 100 micro M Gpp(NH)p for decoupling of the ternary complex of Compound to Dopamine receptor D2S.
Assay [9] deals with T1, D(4) dopamine receptor. Briefly: Binding Affinity was tested on low Affinity Site of Dopamine receptor D4.4.
The target of assay [10] is T5, D(2) dopamine receptor. Briefly: Dissociation constant of compound on one-site model Bovine dopamine receptor D2. Tested for ability to displace the radioligand [3H]spiperone at the binding site.
Assay [11] concerns the target T5, D(2) dopamine receptor. Put plainly: Binding Affinity was determined for decoupling of the ternary complex of Compound to Bovine dopamine receptor D2. Tested for ability to displace the radioligand [3H]spiperone at the binding site.
Assay [12] has as its target T5, D(2) dopamine receptor. Briefly: Binding Affinity was tested on high Affinity Site of Bovine dopamine receptor D2. Tested for ability to displace the radioligand [3H]pramipexole at the binding site.
Assay [13] concerns the target T5, D(2) dopamine receptor. Briefly: Binding Affinity was tested on low Affinity Site of Bovine dopamine receptor D2. Tested for ability to displace the radioligand [3H]spiperone at the binding site.
Assay [14] addresses T3, D(2) dopamine receptor. Put plainly: Binding Affinity was determined in the presence of 100 micro M Gpp(NH)p for decoupling of the ternary complex of Compound to Dopamine receptor D2L.
For assay [15], the target named is T3, D(2) dopamine receptor. Put plainly: Binding Affinity was tested on low Affinity Site of Dopamine receptor D2L.
Assay [16] addresses T3, D(2) dopamine receptor. Briefly: Dissociation constant of compound on one-site model Dopamine receptor D2S.
Assay [17] deals with T3, D(2) dopamine receptor. Briefly: Dissociation constant of compound on one-site model Dopamine receptor D2L.
The target of assay [18] is T1, D(4) dopamine receptor. Briefly: Dissociation constant of compound on one-site model Dopamine receptor D4.4.
Assay [19] concerns the target T4, D(3) dopamine receptor. Put plainly: Binding Affinity was determined in the presence of 100 micro M Gpp(NH)p for decoupling of the ternary complex of Compound to Dopamine receptor D3.
Assay [20] has as its target T4, D(3) dopamine receptor. Put plainly: Binding Affinity was tested on low Affinity Site of Dopamine receptor D3.
Assay [21] addresses T4, D(3) dopamine receptor. Briefly: Dissociation constant of compound on one-site model Dopamine receptor D3.
The target of assay [22] is T2, D(1A) dopamine receptor. Put plainly: Binding Affinity was tested for its ability to displace the radioligand [3H]-SCH- 23390 from High Affinity Site of Bovine dopamine receptor D1.
The target in assay [23] is T3, D(2) dopamine receptor. This is another data set of the same source.
Assay [24] addresses T3, D(2) dopamine receptor. The source holds these as a separate data set.
For assay [25], the target named is T4, D(3) dopamine receptor. The source holds these as a separate data set.
For assay [26], the target named is T2, D(1A) dopamine receptor. Briefly: Binding Affinity was tested on High Affinity Site of Bovine Dopamine D1 Receptor. Tested for ability to displace the radioligand [3H]-SCH- 23390.
The target in assay [27] is T4, D(3) dopamine receptor. Briefly: Dissociation constant of compound on one-site model Human Dopamine receptor D3.
Assay [28] deals with T3, D(2) dopamine receptor. Briefly: Binding Affinity was tested on High Affinity Site of Dopamine receptor D2L.
The target in assay [29] is T3, D(2) dopamine receptor. Briefly: Binding Affinity was tested on High Affinity Site of Dopamine receptor D2S.

T5 sequence (P20288 whole entry): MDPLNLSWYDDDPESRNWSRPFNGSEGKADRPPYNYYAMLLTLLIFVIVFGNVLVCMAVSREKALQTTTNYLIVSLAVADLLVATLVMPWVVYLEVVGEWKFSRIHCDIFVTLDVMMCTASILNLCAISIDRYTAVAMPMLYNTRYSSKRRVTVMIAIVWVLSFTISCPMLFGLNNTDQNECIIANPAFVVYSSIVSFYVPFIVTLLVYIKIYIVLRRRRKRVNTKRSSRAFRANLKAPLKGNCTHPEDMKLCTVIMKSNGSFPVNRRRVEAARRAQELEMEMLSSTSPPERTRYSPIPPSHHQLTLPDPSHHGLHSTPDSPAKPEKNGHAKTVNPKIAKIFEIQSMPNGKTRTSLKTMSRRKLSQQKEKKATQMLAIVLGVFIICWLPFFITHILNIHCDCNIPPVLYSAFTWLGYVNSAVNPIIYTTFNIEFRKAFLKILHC
T2 sequence (Q95136 whole entry): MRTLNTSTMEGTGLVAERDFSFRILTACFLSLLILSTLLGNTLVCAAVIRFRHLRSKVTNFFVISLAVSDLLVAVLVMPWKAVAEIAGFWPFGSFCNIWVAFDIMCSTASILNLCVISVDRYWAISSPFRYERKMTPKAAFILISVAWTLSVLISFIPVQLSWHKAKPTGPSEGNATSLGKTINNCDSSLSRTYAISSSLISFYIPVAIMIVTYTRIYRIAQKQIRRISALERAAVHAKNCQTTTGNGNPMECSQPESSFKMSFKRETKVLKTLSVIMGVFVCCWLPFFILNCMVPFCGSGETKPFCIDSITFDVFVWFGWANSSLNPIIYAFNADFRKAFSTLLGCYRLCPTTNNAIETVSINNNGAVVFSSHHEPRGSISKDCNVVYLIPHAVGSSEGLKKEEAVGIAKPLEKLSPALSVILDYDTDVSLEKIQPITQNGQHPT
T4 sequence (P35462 whole entry): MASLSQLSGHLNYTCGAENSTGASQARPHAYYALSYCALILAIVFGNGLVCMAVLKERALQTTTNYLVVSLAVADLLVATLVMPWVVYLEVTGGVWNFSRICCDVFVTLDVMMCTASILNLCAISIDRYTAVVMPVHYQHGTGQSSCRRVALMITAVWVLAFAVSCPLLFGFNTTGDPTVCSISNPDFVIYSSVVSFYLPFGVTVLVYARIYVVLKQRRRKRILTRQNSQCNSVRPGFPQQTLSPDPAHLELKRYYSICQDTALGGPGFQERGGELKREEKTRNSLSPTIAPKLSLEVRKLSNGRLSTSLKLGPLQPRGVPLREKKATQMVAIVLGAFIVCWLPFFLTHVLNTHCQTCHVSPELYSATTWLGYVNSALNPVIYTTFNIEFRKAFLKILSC
T3 sequence (P14416 whole entry): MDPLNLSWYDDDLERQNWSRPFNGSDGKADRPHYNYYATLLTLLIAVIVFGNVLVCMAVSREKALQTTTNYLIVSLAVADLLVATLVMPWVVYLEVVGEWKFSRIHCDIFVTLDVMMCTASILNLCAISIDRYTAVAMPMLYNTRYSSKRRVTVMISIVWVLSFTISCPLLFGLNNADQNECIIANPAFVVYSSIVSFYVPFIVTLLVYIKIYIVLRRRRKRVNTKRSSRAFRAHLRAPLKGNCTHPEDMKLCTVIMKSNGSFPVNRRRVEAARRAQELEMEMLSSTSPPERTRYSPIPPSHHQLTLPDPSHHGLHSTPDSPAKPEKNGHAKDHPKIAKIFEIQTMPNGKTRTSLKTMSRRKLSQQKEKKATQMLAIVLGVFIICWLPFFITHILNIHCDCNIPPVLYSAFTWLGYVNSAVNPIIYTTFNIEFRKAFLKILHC

As for `CCCN(CCC)C1CC=C(C#N)CC1` (stereo unspecified), the inhibition constant Ki (in general, a dissociation constant, usually derived from enzyme kinetics or from competition with a known ligand) on D(4) dopamine receptor [1] was greater than 20 µM; on D(1A) dopamine receptor [2], greater than 20 µM; at D(2) dopamine receptor [3] it was greater than 20 µM; at D(2) dopamine receptor [4], greater than 20 µM; at D(3) dopamine receptor [5] it was 13 µM.

`CCCN(CCC)C1CC=C(C#C[Si](C)(C)C)CC1` (stereo unspecified): the Ki at D(2) dopamine receptor [6] is 0.15 µM; at D(2) dopamine receptor [7] it was greater than 20 µM; on D(2) dopamine receptor [8], greater than 20 µM; on D(4) dopamine receptor [1], 0.16 µM; on D(4) dopamine receptor [9], 3.8 µM; on D(2) dopamine receptor [10] it was 1.6 µM. Besides, the inhibition constant (Ki) was 12 µM on D(2) dopamine receptor [11]; 0.03 µM on D(2) dopamine receptor [12]; 7.5 µM on D(2) dopamine receptor [13]; greater than 20 µM on D(2) dopamine receptor [14]; greater than 20 µM on D(2) dopamine receptor [15]; greater than 20 µM on D(2) dopamine receptor [16]. In addition, the inhibitory constant (Ki) at D(2) dopamine receptor [17] was greater than 20 µM; at D(4) dopamine receptor [18] it was 0.64 µM; at D(3) dopamine receptor [19], 1.9 µM; at D(3) dopamine receptor [20], 1.6 µM; at D(3) dopamine receptor [21] it was 0.82 µM; at D(1A) dopamine receptor [2], greater than 20 µM. The inhibitory constant (Ki) was found to be 0.97 µM at D(2) dopamine receptor [3], 0.16 µM at D(2) dopamine receptor [4] and 0.047 µM at D(3) dopamine receptor [5].

In the case of `CCCN(CCC)C1CCC(=CC#N)CC1` (stereo unspecified), the Ki at D(4) dopamine receptor [1] was greater than 20 µM; on D(1A) dopamine receptor [22], greater than 20 µM; on D(2) dopamine receptor [23] it was greater than 20 µM; on D(2) dopamine receptor [24], greater than 20 µM; at D(3) dopamine receptor [25], 13 µM.

As to `C#CC(C#C)=C1CCC(N(CCC)CCC)CC1` (stereo unspecified), the Ki on D(1A) dopamine receptor [26] was 16 µM; at D(4) dopamine receptor [1], 3.9 µM; on D(2) dopamine receptor [3] it was greater than 20 µM; on D(2) dopamine receptor [4], 12 µM; at D(3) dopamine receptor [5], 4.4 µM.

For the molecule `C#CC1=CCC(N(CCC)CCC)CC1` (stereo unspecified), the Ki on D(2) dopamine receptor [7] worked out at 12 µM; on D(2) dopamine receptor [8], 17 µM; on D(4) dopamine receptor [1], 0.022 µM; at D(4) dopamine receptor [9], 0.38 µM; on D(2) dopamine receptor [14], 19 µM; at D(2) dopamine receptor [15], 14 µM. Further, the Ki worked out at 2.9 µM on D(2) dopamine receptor [16]; 2.8 µM on D(2) dopamine receptor [17]; 0.17 µM at D(4) dopamine receptor [18]; 0.72 µM on D(3) dopamine receptor [19]; 0.59 µM at D(3) dopamine receptor [20]; 0.35 µM at D(3) dopamine receptor [27]. The Ki at D(2) dopamine receptor [3] was 0.25 µM; at D(2) dopamine receptor [4] it was 0.27 µM; on D(3) dopamine receptor [5] it was 0.0052 µM.

For `CCCN(CCC)C1CCC(=C(C#Cc2ccccc2)C#Cc2ccccc2)CC1` (stereo unspecified), the Ki on D(4) dopamine receptor [1] amounted to 1.4 µM; at D(1A) dopamine receptor [2], 2.2 µM; on D(2) dopamine receptor [3] it was 7.3 µM; on D(2) dopamine receptor [4], 5.2 µM; at D(3) dopamine receptor [5], 1.8 µM.

Regarding `CCCN(CCC)C1CC=C(C#Cc2ccccc2)CC1` (stereo unspecified), the Ki on D(4) dopamine receptor [1] was 16 µM; on D(2) dopamine receptor [28], 15 µM; at D(2) dopamine receptor [29], 15 µM; on D(1A) dopamine receptor [2], greater than 20 µM; on D(3) dopamine receptor [5] it was 3.5 µM.

As for `CCCN(CCC)C1CCC(=C(C#C[Si](C)(C)C)C#C[Si](C)(C)C)CC1` (stereo unspecified), the inhibitory constant (Ki) on D(1A) dopamine receptor [26] is 3.9 µM; on D(4) dopamine receptor [1] it was 1.9 µM; on D(2) dopamine receptor [3], 13 µM; at D(2) dopamine receptor [4] it was 11 µM; at D(3) dopamine receptor [5], 2.8 µM.

As for `CCCN(CCC)C1CCC(=C(C#N)C#N)CC1` (stereo unspecified), the inhibition constant (Ki) on D(4) dopamine receptor [1] is greater than 20 µM; at D(1A) dopamine receptor [2] it was greater than 20 µM; at D(2) dopamine receptor [3], 15 µM; on D(2) dopamine receptor [4], greater than 20 µM; at D(3) dopamine receptor [5] it was 1.6 µM.

These data come from ChEMBL document CHEMBL1133710 (J Med Chem, 2000).
